Assay results reported in ChEMBL document CHEMBL1201862, “PubChem BioAssay data set” (2004).
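Briefly, cells in 96-well plates were exposed to five compound concentrations for 48 h, and endpoints were estimated by linear interpolation. GI50 is the concentration that inhibits growth by half.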 Calls of active or inactive are those of the source. No stated cut-off is given here; in the data, active = GI50 up to about 1.1 µM and inactive = higher.

Key:
Experiment in all cases: NCI anticancer screen, dose series, 48 h
LXFL 529 = system: LXFL 529
SR = system: SR
DMS-273 = system: DMS-273
M19-MEL = system: M19-MEL
Hs-578T = system: Hs-578T
DU-145 = system: DU-145
RXF 631 = system: RXF 631
XF498 = system: XF498
HOP-18 = system: HOP-18

For `CN1C(=O)CN2C(Cl)(Cl)C2(c2ccccc2)c2cc(Cl)ccc21` (centres undefined), the GI50 (LXFL 529) was > 100 µM (inactive), the GI50 (SR) was > 10 µM (inactive) and the GI50 (DMS-273) was 87.7 µM (inactive). For the same compound, the GI50 (M19-MEL) was > 100 µM (inactive).
With `CC1=NN(C(=O)c2ccc(Cl)cc2)C(=O)C1/N=N/c1ccc(S(=O)(=O)Nc2ncccn2)cc1` (centres undefined) the GI50 (Hs-578T) was > 100 µM (inactive), the GI50 (SR) was > 100 µM (inactive) and the GI50 (DU-145) was > 100 µM (inactive).
With `C=Cc1cc2c(cc1O)CC[C@@H]1[C@@H]2CC[C@]2(C)[C@@H](O)CC[C@@H]12` the GI50 (SR) was 1.97 µM (inactive).
For `S=c1nc(Nc2ccc(Br)cc2)c2c3c(sc2[nH]1)CN(N1CCc2c(sc4[nH]c(=S)nc(Nc5ccc(Br)cc5)c24)C1)CC3`, the GI50 (Hs-578T) was > 50 µM (inactive), the GI50 (SR) was 27.5 µM (inactive) and the GI50 (DU-145) was 33.7 µM (inactive).
For `Cc1c(N2C(=O)CS(=O)(=O)C2c2cccc(Oc3ccccc3)c2)c(=O)n(-c2ccccc2)n1C` (centres undefined), the GI50 (Hs-578T) was 30.9 µM (inactive) and the GI50 (DU-145) was 71.6 µM (inactive).
`O=C(c1ccc(Cl)cc1)N(C(=O)N1CCC(c2ccccc2)CC1)c1ccccc1` was tested, and the GI50 (Hs-578T) was 24.2 µM (inactive) and the GI50 (DU-145) was 59 µM (inactive).
For `CN(C)C(=S)/N=c1\ss/c(=N\S(=O)(=O)c2ccccc2)n1-c1ccccc1`, the GI50 (LXFL 529) was 0.0481 µM (active), the GI50 (RXF 631) was > 100 µM (inactive) and the GI50 (XF498) was 19.5 µM (inactive). The GI50 (DMS-273) was 12.9 µM (inactive), the GI50 (HOP-18) was 32.6 µM (inactive) and the GI50 (M19-MEL) was 19.4 µM (inactive).
`Clc1ccc(CCc2ccncn2)c(Cl)c1` was tested, and the GI50 (LXFL 529) was 36.3 µM (inactive), the GI50 (RXF 631) was 60.1 µM (inactive) and the GI50 (DMS-273) was 97.5 µM (inactive). For the same compound, the GI50 (HOP-18) was 33.3 µM (inactive) and the GI50 (M19-MEL) was 47.8 µM (inactive).
`C/C=C1\NC(=O)[C@H]2CSSCCC=C[C@H](CC(=O)N[C@H](C(C)C)C(=O)N2)OC(=O)[C@H](C(C)C)NC1=O` was tested, and the GI50 (Hs-578T) was 3.61e-05 µM (active), the GI50 (XF498) was 0.00285 µM (active) and the GI50 (DMS-273) was 0.00673 µM (active). The GI50 (DU-145) was 4.55e-05 µM (active), the GI50 (HOP-18) was 0.00412 µM (active) and the GI50 (M19-MEL) was 0.00252 µM (active).
With `O=c1cnn(CCOCP(=O)(O)O)c(=O)[nH]1` the GI50 (Hs-578T) was > 100 µM (inactive) and the GI50 (DU-145) was > 100 µM (inactive).
In the case of `CN(C)c1ccc(/C=N/c2ccc(Oc3ccc(Cl)cc3)c(Cl)c2)cc1`, the GI50 (Hs-578T) is reported as 15.4 µM (inactive), the GI50 (SR) is reported as 10.9 µM (inactive) and the GI50 (DU-145) is reported as 27.5 µM (inactive).
In the case of `CC12CC3(C)CC(C)(C1)CC(N=[N+]=[N-])(C2)C3`, the GI50 (LXFL 529) is reported as > 100 µM (inactive), the GI50 (RXF 631) is reported as > 100 µM (inactive) and the GI50 (XF498) is reported as > 100 µM (inactive). For the same compound, the GI50 (SR) was > 100 µM (inactive), the GI50 (DMS-273) was > 100 µM (inactive) and the GI50 (HOP-18) was > 100 µM (inactive). The GI50 (M19-MEL) was > 100 µM (inactive).
`O=C(Nc1nc2ncn(CCNCc3ccccc3)c2c(=O)[nH]1)c1ccccc1` was tested, and the GI50 (LXFL 529) was > 100 µM (inactive), the GI50 (RXF 631) was 41.5 µM (inactive) and the GI50 (SR) was > 100 µM (inactive). For the same compound, the GI50 (DMS-273) was > 100 µM (inactive), the GI50 (HOP-18) was > 100 µM (inactive) and the GI50 (M19-MEL) was > 100 µM (inactive).
For `CCN(CC)CCNCc1cc(Cl)cc2c1OCOC2`, the GI50 (Hs-578T) was > 10 µM (inactive), the GI50 (SR) was > 10 µM (inactive) and the GI50 (DU-145) was > 10 µM (inactive).
`COc1ccc2[nH]c(Cl)c(/C=C3/C(=O)Nc4cc(C)c(OC)cc43)c2c1` was tested, and the GI50 (Hs-578T) was 3.81 µM (inactive), the GI50 (SR) was 3.08 µM (inactive) and the GI50 (DU-145) was 14.3 µM (inactive).
In the case of `COC(=O)c1cc(C)ccc1CC(Cc1cccc(C)c1)C(=O)OC` (centres undefined), the GI50 (Hs-578T) is reported as > 100 µM (inactive), the GI50 (SR) is reported as 38.4 µM (inactive) and the GI50 (DU-145) is reported as 92.9 µM (inactive).
In the case of `Cc1nc(Nc2nc3ccccc3[nH]2)[nH]c(=O)c1CCO`, the GI50 (Hs-578T) is reported as 20.6 µM (inactive), the GI50 (SR) is reported as 30.9 µM (inactive) and the GI50 (DU-145) is reported as 61.7 µM (inactive).
With `O=C1CSc2sc(=S)sc2S1` the GI50 (XF498) was > 100 µM (inactive), the GI50 (DMS-273) was 95.9 µM (inactive) and the GI50 (HOP-18) was > 84.3 µM (inactive). For the same compound, the GI50 (M19-MEL) was > 100 µM (inactive).
`COc1c(Cl)ccc(Cl)c1C(=O)NNC(=O)c1c(Cl)c(Cl)c(Cl)c(Cl)c1-c1nc2cc(C(=O)c3ccccc3)ccc2[nH]1` was tested, and the GI50 (Hs-578T) was 54.1 µM (inactive), the GI50 (SR) was 37.2 µM (inactive) and the GI50 (DU-145) was > 100 µM (inactive).
With `COc1ccc(CC/N=C2\CCC(C(=O)NCCc3ccc(OC)c(OC)c3)N2)cc1OC` (centres undefined) the GI50 (LXFL 529) was > 100 µM (inactive), the GI50 (RXF 631) was > 100 µM (inactive) and the GI50 (XF498) was > 100 µM (inactive). For the same compound, the GI50 (DMS-273) was > 100 µM (inactive) and the GI50 (HOP-18) was > 100 µM (inactive).
With `COc1ccc(C2=C(Cl)c3cc(OC)c(OC)cc3C2Cl)cc1` (centres undefined) the GI50 (Hs-578T) was 17.3 µM (inactive), the GI50 (LXFL 529) was 13.2 µM (inactive) and the GI50 (XF498) was < 0.01 µM (active). The GI50 (SR) was 3.27 µM (inactive), the GI50 (DMS-273) was 17.2 µM (inactive) and the GI50 (DU-145) was 17.9 µM (inactive). The GI50 (HOP-18) was 20.3 µM (inactive) and the GI50 (M19-MEL) was 18.2 µM (inactive).
In the case of `O=C1C(c2ccc(C3=[N+]([O-])c4cc([N+](=O)[O-])ccc4C3=O)cc2)=[N+]([O-])c2cc([N+](=O)[O-])ccc21`, the GI50 (LXFL 529) is reported as > 10 µM (inactive), the GI50 (XF498) is reported as > 10 µM (inactive) and the GI50 (DMS-273) is reported as > 10 µM (inactive). The GI50 (HOP-18) was > 100 µM (inactive) and the GI50 (M19-MEL) was > 10 µM (inactive).
For `Cc1cc(C)c2c(n1)S(=O)(=O)N(CCCN1CCN(c3cccc(C(F)(F)F)c3)CC1)C(C(=O)c1ccccc1)=C2O`, the GI50 (Hs-578T) was 17.6 µM (inactive), the GI50 (SR) was 2.93 µM (inactive) and the GI50 (DU-145) was 13.4 µM (inactive).
In the case of `OCc1nnn2c1CCC2`, the GI50 (LXFL 529) is reported as > 100 µM (inactive), the GI50 (XF498) is reported as > 100 µM (inactive) and the GI50 (SR) is reported as > 100 µM (inactive). The GI50 (HOP-18) was > 100 µM (inactive) and the GI50 (M19-MEL) was > 100 µM (inactive).
With `CCCO[C@@H]1[C@@H](OC(C)=O)[C@@H](OC(C)=O)C(C)(C)/C=C/[C@H](C)C(=O)[C@@]2(OC(C)=O)C[C@@](C)(OC(C)=O)[C@H](OC(C)=O)[C@@H]2[C@H]2OC(=O)CC[C@@]12OC(=O)c1ccccc1` the GI50 (Hs-578T) was 12.1 µM (inactive) and the GI50 (DU-145) was > 25 µM (inactive).
`CC(=O)OCC1OC(n2cc(F)c(=O)[nH]c2=O)C(N)C(OC(C)=O)C1OC(C)=O` (centres undefined) was tested, and the GI50 (XF498) was > 100 µM (inactive), the GI50 (DMS-273) was > 100 µM (inactive) and the GI50 (HOP-18) was > 100 µM (inactive). The GI50 (M19-MEL) was > 100 µM (inactive).
In the case of `S=c1sc2cscc2s1`, the GI50 (LXFL 529) is reported as 20.2 µM (inactive), the GI50 (RXF 631) is reported as 24.9 µM (inactive) and the GI50 (XF498) is reported as 23.3 µM (inactive). The GI50 (SR) was 27.8 µM (inactive), the GI50 (DMS-273) was 31.1 µM (inactive) and the GI50 (HOP-18) was 20.7 µM (inactive). For the same compound, the GI50 (M19-MEL) was 18.5 µM (inactive).
With `COc1ccc(C2C(N)=NCC2c2ccccn2)cc1` (centres undefined) the GI50 (LXFL 529) was > 100 µM (inactive), the GI50 (RXF 631) was > 100 µM (inactive) and the GI50 (XF498) was > 100 µM (inactive). The GI50 (SR) was > 100 µM (inactive), the GI50 (HOP-18) was 30.1 µM (inactive) and the GI50 (M19-MEL) was > 100 µM (inactive).
In the case of `CC(=O)OCC1=C(COC(C)=O)C(=O)c2c(O)ccc(O)c2C1=O`, the GI50 (LXFL 529) is reported as 2.55 µM (inactive), the GI50 (SR) is reported as 5.47 µM (inactive) and the GI50 (DMS-273) is reported as 15.5 µM (inactive). For the same compound, the GI50 (HOP-18) was 21 µM (inactive) and the GI50 (M19-MEL) was 1.73 µM (inactive).
With `CO/N=C1/c2sccc2[C@H](NC(=O)CNC(=O)OC(C)(C)C)[C@@H]1O` the GI50 (Hs-578T) was > 100 µM (inactive), the GI50 (SR) was > 100 µM (inactive) and the GI50 (DU-145) was > 100 µM (inactive).
In the case of `C1#Cc2ccccc2OCCOc2ccccc2C#Cc2ccccc2OCCOc2ccccc21`, the GI50 (Hs-578T) is reported as 22.5 µM (inactive) and the GI50 (DU-145) is reported as > 100 µM (inactive).
